Source: BindingDB's records for doi:10.1021/jm000145g (University of Oxford, 2001)
Counter-ions that a name gives are not always drawn.

Target: Prostate-specific antigen (Homo sapiens) (UniProt P07288)
Assay: Inhibition of Prostate specific antigen PSA (Serine Protease)

Prostate-specific antigen (Homo sapiens), sequence (P07288 whole entry, looked up): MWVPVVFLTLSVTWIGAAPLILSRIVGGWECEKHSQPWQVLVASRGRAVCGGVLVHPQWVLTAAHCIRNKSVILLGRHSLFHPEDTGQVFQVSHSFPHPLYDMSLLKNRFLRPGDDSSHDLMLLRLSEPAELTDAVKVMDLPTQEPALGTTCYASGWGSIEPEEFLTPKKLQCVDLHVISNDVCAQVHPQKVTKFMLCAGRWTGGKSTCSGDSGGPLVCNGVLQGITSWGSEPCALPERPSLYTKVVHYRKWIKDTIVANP

IC50 | Compound
1.59 µM | O=C(OC[C@@H]1[C@H](Cc2ccccc2)C(=O)N1C(=O)c1ccccc1)c1ccccc1 [Benzoic acid 1-benzoyl-3-benzyl-4-oxo-azetidin-2-ylmethyl ester]
> 100 µM | O=C(O)c1ccc(C(=O)OC[C@@H]2[C@H](Cc3ccccc3)C(=O)N2C(=O)c2ccccc2)cc1 [Terephthalic acid mono-(1-benzoyl-3-benzyl-4-oxo-azetidin-2-ylmethyl) ester]
2.19 µM | CCS(=O)(=O)N1C(=O)[C@@H](Cc2ccccc2)[C@H]1COC(=O)c1ccccc1 [Benzoic acid 3-benzyl-1-ethanesulfonyl-4-oxo-azetidin-2-ylmethyl ester]
4.79 µM | Cc1ccc(S(=O)(=O)N2C(=O)[C@@H](Cc3ccccc3)[C@H]2COC(=O)c2ccccc2)cc1 [Benzoic acid 3-benzyl-4-oxo-1-(toluene-4-sulfonyl)-azetidin-2-ylmethyl ester]
11.5 µM | O=C(OC[C@@H]1[C@H](Cc2ccccc2)C(=O)N1S(=O)(=O)c1ccc([N+](=O)[O-])cc1)c1ccccc1 [Benzoic acid 3-benzyl-1-(4-nitro-benzenesulfonyl)-4-oxo-azetidin-2-ylmethyl ester]
3.08 µM | O=C(OC[C@@H]1[C@H](Cc2ccccc2)C(=O)N1S(=O)(=O)c1ccccc1)c1ccccc1 [Benzoic acid 1-benzenesulfonyl-3-benzyl-4-oxo-azetidin-2-ylmethyl ester]
> 30 µM | Cc1ccc(S(=O)(=O)N2C(=O)[C@@H](Cc3ccccc3)[C@H]2C(=O)OCc2ccccc2)cc1 [3-Benzyl-4-oxo-1-(toluene-4-sulfonyl)-azetidine-2-carboxylic acid benzyl ester]

More lines, now with the values behind:

Compound | IC50
NCc1ccc(COC(=O)[C@@H]2[C@H](Cc3ccccc3)C(=O)N2C(=O)Cc2cccc(C(=O)OCc3ccccc3)c2)cc1 [3-Benzyl-1-[2-(3-benzyloxycarbonyl-phenyl)-acetyl]-4-oxo-azetidine-2-carboxylic acid 4-aminomethyl-benzyl ester; TFA] | 1.34 µM
O=C(OCc1ccccc1)[C@@H]1[C@H](Cc2ccc(O)cc2)C(=O)N1C(=O)c1ccccc1 [1-Benzoyl-3-(4-hydroxy-benzyl)-4-oxo-azetidine-2-carboxylic acid benzyl ester] | 9.14 µM
O=C(OCc1ccccc1)c1cccc(CC(=O)N2C(=O)[C@@H](Cc3ccccc3)[C@H]2COC(=O)c2ccccc2)c1 [3-[2-(2-Benzoyloxymethyl-3-benzyl-4-oxo-azetidin-1-yl)-2-oxo-ethyl]-benzoic acid benzyl ester] | > 100 µM
O=C(O)c1ccc(COC(=O)[C@@H]2[C@H](Cc3ccccc3)C(=O)N2C(=O)c2ccccc2)cc1 [1-Benzoyl-3-benzyl-4-oxo-azetidine-2-carboxylic acid 4-carboxy-benzyl ester] | 24.3 µM
O=C(O)c1ccc(COC(=O)[C@@H]2[C@H](Cc3ccccc3)C(=O)N2C(=O)Cc2cccc(C(=O)O)c2)cc1 [3-Benzyl-1-[2-(3-carboxy-phenyl)-acetyl]-4-oxo-azetidine-2-carboxylic acid 4-carboxy-benzyl ester] | > 30 µM
